Results published in ChEMBL document CHEMBL4325853, “Design, synthesis and antibacterial evaluation of 2,4-disubstituted-6-thiophenyl-pyrimidines” (Eur J Med Chem, 2019).
Values after ≈ are worked out from the molar mass of the structure shown. Active and inactive are the calls of the source. No cut-off for these calls is given here.

Tests used:
Enterococcus faecium [1] = experiment: Antibacterial activity against Enterococcus faecium ATCC 49624 after 18 hrs by broth microdilution method; type: functional; details: ATCC 49624, 18 h
[2] = tested on: Staphylococcus epidermidis; experiment: Antibacterial activity against Staphylococcus epidermidis ATCC 12228 after 18 hrs by broth microdilution method; type: functional; details: ATCC 12228, 18 h
Escherichia coli = experiment: Antibacterial activity against Escherichia coli ATCC 25922 after 18 hrs by broth microdilution method; type: functional; details: ATCC 25922, 18 h
Staphylococcus aureus [3] = experiment: Potency index, ratio of berberine MIC to test compound MIC for Staphylococcus aureus ATCC 29213; type: functional
Enterococcus faecium [4] = experiment: Potency index, ratio of berberine MIC to test compound MIC for Enterococcus faecium ATCC 49624; type: functional
Enterococcus faecalis = experiment: Potency index, ratio of berberine MIC to test compound MIC for Enterococcus faecalis ATCC 29212; type: functional
Staphylococcus aureus [5] = experiment: Antibacterial activity against methicillin-resistant Staphylococcus aureus ATCC BAA41 after 18 hrs by broth microdilution method; type: functional; details: ATCC BAA41, 18 h
Staphylococcus aureus [6] = experiment: Antibacterial activity against methicillin-resistant Staphylococcus aureus ATCC 33592 after 18 hrs by broth microdilution method; type: functional; details: ATCC 33592, 18 h
Staphylococcus aureus [7] = experiment: Potency index, ratio of methicillin MIC to test compound MIC for methicillin-resistant Staphylococcus aureus ATCC BAA41; type: functional
Staphylococcus aureus [8] = experiment: Antibacterial activity against methicillin-resistant Staphylococcus aureus isolate 7917 after 18 hrs by broth microdilution method; type: functional; details: isolate 7917, 18 h
Staphylococcus aureus [9] = experiment: Antibacterial activity against methicillin-resistant Staphylococcus aureus isolate 7247 after 18 hrs by broth microdilution method; type: functional; details: isolate 7247, 18 h
Staphylococcus aureus [10] = experiment: Antibacterial activity against methicillin-resistant Staphylococcus aureus isolate 3096 after 18 hrs by broth microdilution method; type: functional; details: isolate 3096, 18 h
Staphylococcus aureus [11] = experiment: Antibacterial activity against methicillin-resistant Staphylococcus aureus isolate 2491 after 18 hrs by broth microdilution method; type: functional; details: isolate 2491, 18 h
Staphylococcus aureus [12] = experiment: Antibacterial activity against methicillin-resistant Staphylococcus aureus isolate 2931 after 18 hrs by broth microdilution method; type: functional; details: isolate 2931, 18 h
Staphylococcus aureus [13] = experiment: Antibacterial activity against methicillin-resistant Staphylococcus aureus isolate 7863 after 18 hrs by broth microdilution method; type: functional; details: isolate 7863, 18 h
Staphylococcus aureus [14] = experiment: Antibacterial activity against methicillin-resistant Staphylococcus aureus isolate 7947 after 18 hrs by broth microdilution method; type: functional; details: isolate 7947, 18 h
Staphylococcus aureus [15] = experiment: Antibacterial activity against methicillin-resistant Staphylococcus aureus isolate 7813 after 18 hrs by broth microdilution method; type: functional; details: isolate 7813, 18 h
Staphylococcus aureus [16] = experiment: Antibacterial activity against methicillin-resistant Staphylococcus aureus isolate 5426 after 18 hrs by broth microdilution method; type: functional; details: isolate 5426, 18 h
Staphylococcus aureus [17] = experiment: Antibacterial activity against methicillin-resistant Staphylococcus aureus isolate 1651 after 18 hrs by broth microdilution method; type: functional; details: isolate 1651, 18 h
Staphylococcus aureus [18] = experiment: Antibacterial activity against methicillin-resistant Staphylococcus aureus isolate 8179 after 18 hrs by broth microdilution method; type: functional; details: isolate 8179, 18 h
Staphylococcus aureus [19] = experiment: Antibacterial activity against methicillin-resistant Staphylococcus aureus isolate 8071 after 18 hrs by broth microdilution method; type: functional; details: isolate 8071, 18 h
Staphylococcus aureus [20] = experiment: Antibacterial activity against methicillin-resistant Staphylococcus aureus isolate 7916 after 18 hrs by broth microdilution method; type: functional; details: isolate 7916, 18 h
Staphylococcus aureus [21] = experiment: Antibacterial activity against methicillin-resistant Staphylococcus aureus isolate 7682 after 18 hrs by broth microdilution method; type: functional; details: isolate 7682, 18 h
Staphylococcus aureus [22] = experiment: Antibacterial activity against methicillin-resistant Staphylococcus aureus isolate 5239 after 18 hrs by broth microdilution method; type: functional; details: isolate 5239, 18 h
Staphylococcus aureus [23] = experiment: Antibacterial activity against methicillin-resistant Staphylococcus aureus isolate 7536 after 18 hrs by broth microdilution method; type: functional; details: isolate 7536, 18 h
Staphylococcus aureus [24] = experiment: Antibacterial activity against methicillin-resistant Staphylococcus aureus isolate 1708 after 18 hrs by broth microdilution method; type: functional; details: isolate 1708, 18 h
Staphylococcus aureus [25] = experiment: Antibacterial activity against methicillin-resistant Staphylococcus aureus isolate 5035 after 18 hrs by broth microdilution method; type: functional; details: isolate 5035, 18 h
Staphylococcus aureus [26] = experiment: Antibacterial activity against methicillin-resistant Staphylococcus aureus isolate 1947 after 18 hrs by broth microdilution method; type: functional; details: isolate 1947, 18 h
Staphylococcus aureus [27] = experiment: Antibacterial activity against methicillin-resistant Staphylococcus aureus isolate 8078 after 18 hrs by broth microdilution method; type: functional; details: isolate 8078, 18 h
Staphylococcus aureus [28] = experiment: Ratio of MBC to MIC for methicillin-resistant Staphylococcus aureus ATCC BAA41; type: functional
Staphylococcus aureus [29] = experiment: Ratio of MBC to MIC for methicillin-resistant Staphylococcus aureus ATCC 43300; type: functional
[30] = molecular target: T1, Cell division protein FtsZ (Staphylococcus aureus) (UniProt P0A031); experiment: Inhibition of recombinant Staphylococcus aureus FtsZ polymerization at 8 ug/ml by 90 degree light scattering-based fluorescence spectrometric analysis
T1 sequence (whole entry): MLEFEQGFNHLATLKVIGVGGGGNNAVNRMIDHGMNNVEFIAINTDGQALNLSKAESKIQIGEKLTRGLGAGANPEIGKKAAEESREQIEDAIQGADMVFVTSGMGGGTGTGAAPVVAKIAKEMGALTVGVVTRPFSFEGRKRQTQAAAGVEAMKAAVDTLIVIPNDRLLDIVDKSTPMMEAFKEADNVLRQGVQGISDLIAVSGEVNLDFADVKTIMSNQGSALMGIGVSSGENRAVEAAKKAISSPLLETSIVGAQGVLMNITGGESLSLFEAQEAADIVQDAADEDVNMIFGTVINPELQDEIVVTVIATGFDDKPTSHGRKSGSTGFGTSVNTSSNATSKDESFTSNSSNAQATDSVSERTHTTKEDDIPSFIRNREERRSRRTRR

[31] = molecular target: T1, Cell division protein FtsZ (Staphylococcus aureus); experiment: Inhibition of recombinant Staphylococcus aureus FtsZ GTPase activity assessed as reduction in inorganic phosphate formation after 30 mins by colorimetric method
Staphylococcus aureus [32] = experiment: Antibacterial activity against Staphylococcus aureus ATCC 29213 after 10 passages by broth microdilution method; type: functional, organism-based
Staphylococcus aureus [33] = experiment: Ratio of MIC for Staphylococcus aureus ATCC 29213 after and before 11 to 21 serial passages; type: functional
[34] = Hemolytic activity against human erythrocytes measured after 1 hr; type: ADME, cell-based, Erythrocyte
[35] = Selectivity index, ratio of HC50 for human erythrocytes to MIC for methicillin-resistant Staphylococcus aureus ATCC BAA41; type: toxicity; details: read-out: Selectivity Index
[36] = Selectivity index, ratio of HC50 for human erythrocytes to MIC for methicillin-resistant Staphylococcus aureus ATCC BAA1720; type: toxicity; details: read-out: Selectivity Index
[37] = Selectivity index, ratio of HC50 for human erythrocytes to MIC for methicillin-resistant Staphylococcus aureus ATCC 33591; type: toxicity; details: read-out: Selectivity Index
[38] = Selectivity index, ratio of HC50 for human erythrocytes to MIC for methicillin-resistant Staphylococcus aureus ATCC 33592; type: toxicity; details: read-out: Selectivity Index
[39] = Selectivity index, ratio of HC50 for human erythrocytes to MIC for methicillin-resistant Staphylococcus aureus ATCC 43300; type: toxicity; details: read-out: Selectivity Index

## CC(C)(C)c1ccc(CN2CCCN(CCc3cc(-c4cccs4)nc(-c4ccncc4)n3)CC2)cc1
Enterococcus faecium [1]
  MIC90: 4 µg/mL (≈ 7.82 µM)
[2]
  MIC90: 2 µg/mL (≈ 3.91 µM)
Escherichia coli
  MIC90: 128 µg/mL (≈ 250 µM)
Staphylococcus aureus [3]
  Ratio: 50 - 100
Enterococcus faecium [4]
  Ratio: 50 - 100
Enterococcus faecalis
  Ratio: 50 - 100
Staphylococcus aureus [5]
  MIC90: 2 µg/mL (≈ 3.91 µM)
Staphylococcus aureus [6]
  MIC90: 2 µg/mL (≈ 3.91 µM)
Staphylococcus aureus [7]
  Ratio: >100
Staphylococcus aureus [8]
  MIC90: 2 µg/mL (≈ 3.91 µM)
Staphylococcus aureus [9]
  MIC90: 2 µg/mL (≈ 3.91 µM)
Staphylococcus aureus [10]
  MIC90: 2 µg/mL (≈ 3.91 µM)
Staphylococcus aureus [11]
  MIC90: 4 µg/mL (≈ 7.82 µM)
Staphylococcus aureus [12]
  MIC90: 2 µg/mL (≈ 3.91 µM)
Staphylococcus aureus [13]
  MIC90: 2 µg/mL (≈ 3.91 µM)
Staphylococcus aureus [14]
  MIC90: 2 µg/mL (≈ 3.91 µM)
Staphylococcus aureus [15]
  MIC90: 2 µg/mL (≈ 3.91 µM)
Staphylococcus aureus [16]
  MIC90: 2 µg/mL (≈ 3.91 µM)
Staphylococcus aureus [17]
  MIC90: 2 µg/mL (≈ 3.91 µM)
Staphylococcus aureus [18]
  MIC90: 2 µg/mL (≈ 3.91 µM)
Staphylococcus aureus [19]
  MIC90: 2 µg/mL (≈ 3.91 µM)
Staphylococcus aureus [20]
  MIC90: 2 µg/mL (≈ 3.91 µM)
Staphylococcus aureus [21]
  MIC90: 4 µg/mL (≈ 7.82 µM)
Staphylococcus aureus [22]
  MIC90: 2 µg/mL (≈ 3.91 µM)
Staphylococcus aureus [23]
  MIC90: 2 µg/mL (≈ 3.91 µM)
Staphylococcus aureus [24]
  MIC90: 4 µg/mL (≈ 7.82 µM)
Staphylococcus aureus [25]
  MIC90: 2 µg/mL (≈ 3.91 µM)
Staphylococcus aureus [26]
  MIC90: 2 µg/mL (≈ 3.91 µM)
Staphylococcus aureus [27]
  MIC90: 2 µg/mL (≈ 3.91 µM)
Staphylococcus aureus [28]
  Ratio: 1
Staphylococcus aureus [29]
  Ratio: 2
[30]
  inhibition: Active
[31]
  inhibition: Dose-dependent effect
Staphylococcus aureus [32]
  Activity: Active
Staphylococcus aureus [33]
  Activity: Active
[34]
  HC50 at 1 h: > 64 µg/mL
[35]
  selectivity ratio: > 32
[36]
  selectivity ratio: > 32
[37]
  selectivity ratio: > 32
[38]
  selectivity ratio: > 32
[39]
  selectivity ratio: > 32

## CN[C@H](CC(C)C)C(=O)N[C@H]1C(=O)N[C@@H](CC(N)=O)C(=O)N[C@H]2C(=O)N[C@H]3C(=O)N[C@H](C(=O)N[C@H](C(=O)O)c4cc(O)cc(O)c4-c4cc3ccc4O)[C@H](O)c3ccc(c(Cl)c3)Oc3cc2cc(c3O[C@@H]2O[C@H](CO)[C@@H](O)[C@H](O)[C@H]2O[C@H]2C[C@](C)(N)[C@H](O)[C@H](C)O2)Oc2ccc(cc2Cl)[C@H]1O [VANCOMYCIN]
Enterococcus faecium [1]
  MIC90: 2 µg/mL (≈ 1.38 µM)
[2]
  MIC90: 0.5 µg/mL (≈ 0.345 µM)
Escherichia coli
  MIC90: 2 µg/mL (≈ 1.38 µM)
Staphylococcus aureus [5]
  MIC90: 2 µg/mL (≈ 1.38 µM)
Staphylococcus aureus [6]
  MIC90: 2 µg/mL (≈ 1.38 µM)
Staphylococcus aureus [8]
  MIC90: 1 µg/mL (≈ 0.69 µM)
Staphylococcus aureus [9]
  MIC90: 1 µg/mL (≈ 0.69 µM)
Staphylococcus aureus [10]
  MIC90: 1 µg/mL (≈ 0.69 µM)
Staphylococcus aureus [11]
  MIC90: 2 µg/mL (≈ 1.38 µM)
Staphylococcus aureus [12]
  MIC90: 1 µg/mL (≈ 0.69 µM)
Staphylococcus aureus [13]
  MIC90: 1 µg/mL (≈ 0.69 µM)
Staphylococcus aureus [14]
  MIC90: 1 µg/mL (≈ 0.69 µM)
Staphylococcus aureus [15]
  MIC90: 1 µg/mL (≈ 0.69 µM)
Staphylococcus aureus [16]
  MIC90: 1 µg/mL (≈ 0.69 µM)
Staphylococcus aureus [17]
  MIC90: 2 µg/mL (≈ 1.38 µM)
Staphylococcus aureus [18]
  MIC90: 1 µg/mL (≈ 0.69 µM)
Staphylococcus aureus [19]
  MIC90: 1 µg/mL (≈ 0.69 µM)
Staphylococcus aureus [20]
  MIC90: 1 µg/mL (≈ 0.69 µM)
Staphylococcus aureus [21]
  MIC90: 1 µg/mL (≈ 0.69 µM)
Staphylococcus aureus [22]
  MIC90: 1 µg/mL (≈ 0.69 µM)
Staphylococcus aureus [23]
  MIC90: 1 µg/mL (≈ 0.69 µM)
Staphylococcus aureus [24]
  MIC90: 1 µg/mL (≈ 0.69 µM)
Staphylococcus aureus [25]
  MIC90: 1 µg/mL (≈ 0.69 µM)
Staphylococcus aureus [26]
  MIC90: 2 µg/mL (≈ 1.38 µM)
Staphylococcus aureus [27]
  MIC90: 2 µg/mL (≈ 1.38 µM)
